The values below come from patent US6518243B1, “Desleucyl glycopeptide antibiotics and methods of making same” (Trustees of Princeton University, priority 1999, dated 2003).

Common to all, as to format: cell-based
One experiment has as its system E. faecalis ATCC 29212. Nature of the experiment: MIC determination in BHI media, OD600. The conditions noted are these: BHI + 0.1% casamino acids, 18 hours at 37° C., ≧90% OD600 inhibition. The essentials: (§1)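 MIC was judged per concentration from endpoint plate readings after an 18-hour incubation at 37° C, using log-phase inoculum at about 5×10^5 CFU/ml and test agents serially diluted in DMSO.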

A further experiment has as its system S. Aureus ATCC 33591. Nature of the experiment: MIC determination in BHI media, OD600. The settings on record: BHI + 0.1% casamino acids, 18 hours at 37° C., ≧90% OD600 inhibition. The essentials: as §1
For a further experiment, the system named is E. faecium ATCC 49624. Nature of the experiment: MIC determination in BHI media, OD600. The settings on record: BHI + 0.1% casamino acids, 18 hours at 37° C., ≧90% OD600 inhibition. An outline of the steps: as §1
The next experiment relates to S aureus ATCC 29213. As to the kind of experiment: MIC determination in BHI media, OD600. The conditions noted are these: BHI + 0.1% casamino acids, 18 hours at 37° C., ≧90% OD600 inhibition. An outline of the steps: as §1
The next experiment has as its system E. faecalis (CL 4877). Nature of the experiment: Zone of inhibition screen, 96 well agar array format. The arrangement: scale not given here. The settings on record: zone of inhibition relative to 1 mg/ml stock solution of p-chlorobiphenylvancomycin. The essentials:
(§2)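 Antibacterial testing on a 96-well agar array; each compound screened separately.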

Another experiment deals with S. aureus (ATCC 29213). Described as above. Also noted: scale not given here. The conditions noted are these: zone of inhibition relative to 1 mg/ml stock solution of p-chlorobiphenylvancomycin. An outline of the steps: as §2

For the molecule `CNC(CC(C)C)C(=O)NC1C(=O)NC(CC(N)=O)C(=O)NC2C(=O)NC3C(=O)NC(C(=O)NC(C(=O)O)c4cc(O)cc(O)c4-c4cc3ccc4O)C(O)c3ccc(c(Cl)c3)Oc3cc2cc(c3OC2OC(CI)C(O)C(O)C2OC2CC(C)(NCc3ccc(-c4ccc(Cl)cc4)cc3)C(O)C(C)O2)Oc2ccc(cc2Cl)C1O` (centres unmarked) [Compound 520], the MIC E. faecalis ATCC 29212 with E. faecalis ATCC 29212 was found to be 0.78 mg/L. Further, the MIC S. aureus ATCC 33591 with S. Aureus ATCC 33591 stood at 0.78 mg/L. In addition, the MIC E. faecium ATCC 49624 in the experiment with E. faecium ATCC 49624 was 0.12 mg/L. The MIC S. aureus ATCC 29213 in the experiment with S aureus ATCC 29213 came out at 0.78 mg/L.
As for `CCOC(=O)NC(CC(N)=O)C(=O)NC1C(=O)NC(CC(N)=O)C(=O)NC2C(=O)NC3C(=O)NC(C(=O)NC(C(=O)O)c4cc(O)cc(O)c4-c4cc3ccc4O)C(O)c3ccc(c(Cl)c3)Oc3cc2cc(c3OC2OC(CO)C(O)C(O)C2OC2CC(C)(NCc3ccc(-c4ccc(Cl)cc4)cc3)C(O)C(C)O2)Oc2ccc(cc2Cl)C1O` (centres unmarked) [Compound 188], the “zone score, E. faecalis CL 4877” value in the experiment with E. faecalis (CL 4877) is on record as 2. Besides, the “zone score, S. aureus ATCC 29213” value with S. aureus (ATCC 29213) was 2. The MIC E. faecalis ATCC 29212 with E. faecalis ATCC 29212 was determined as 0.39 mg/L. The MIC S. aureus ATCC 33591 in the experiment on S. Aureus ATCC 33591 was determined as 0.39 mg/L. The MIC E. faecium ATCC 49624 with E. faecium ATCC 49624 was determined as 0.062 mg/L. In the experiment on S aureus ATCC 29213, the MIC S. aureus ATCC 29213 worked out at 0.39 mg/L.
For `CSCC[C@@H](N)C(=O)N[C@H]1C(=O)N[C@@H](CC(N)=O)C(=O)N[C@H]2C(=O)N[C@H]3C(=O)N[C@H](C(=O)N[C@@H](C(=O)O)c4cc(O)cc(O)c4-c4cc3ccc4O)[C@H](O)c3ccc(c(Cl)c3)Oc3cc2cc(c3O[C@@H]2O[C@H](CO)[C@@H](O)[C@H](O)[C@H]2O[C@@H]2C[C@@](C)(NCc3ccc(-c4ccc(Cl)cc4)cc3)[C@@H](O)[C@@H](C)O2)Oc2ccc(cc2Cl)[C@H]1O` [Compound 15], the “zone score, E. faecalis CL 4877” value in the experiment with E. faecalis (CL 4877) came to 2. For the same molecule, the MIC E. faecalis ATCC 29212 in the experiment with E. faecalis ATCC 29212 turned out to be 0.25 mg/L. Besides, the MIC S. aureus ATCC 33591 with S. Aureus ATCC 33591 came out at 0.12 mg/L. Also, in the experiment on E. faecium ATCC 49624, the MIC E. faecium ATCC 49624 amounted to 0.12 mg/L. In the experiment with S aureus ATCC 29213, the MIC S. aureus ATCC 29213 is 0.25 mg/L.
With `CC1OC(OC2C(Oc3c4cc5cc3Oc3ccc(cc3Cl)C(O)C3NC(=O)C(NC(=O)C5NC(=O)C(CC(N)=O)NC(=O)C(NC(=O)C5CNC(=O)N5)C(O)c5ccc(c(Cl)c5)O4)c4ccc(O)c(c4)-c4c(O)cc(O)cc4C(C(=O)O)NC3=O)OC(CO)C(O)C2O)CC(C)(NCc2ccc(-c3ccc(Cl)cc3)cc2)C1O` (centres unmarked) [Compound 56-3], in the experiment with E. faecalis ATCC 29212, the MIC E. faecalis ATCC 29212 turned out to be 0.25 mg/L. Moreover, the MIC S. aureus ATCC 33591 with S. Aureus ATCC 33591 was 0.25 mg/L. The MIC E. faecium ATCC 49624 in the experiment with E. faecium ATCC 49624 turned out to be 0.12 mg/L. Besides, in the experiment on S aureus ATCC 29213, the MIC S. aureus ATCC 29213 came to 0.25 mg/L.
As for `CCC(C)C(N)C(=O)NC1C(=O)NC(CC(N)=O)C(=O)NC2C(=O)NC3C(=O)NC(C(=O)NC(C(=O)O)c4cc(O)cc(O)c4-c4cc3ccc4O)C(O)c3ccc(c(Cl)c3)Oc3cc2cc(c3OC2OC(CO)C(O)C(O)C2OC2CC(C)(NCc3ccc(-c4ccc(Cl)cc4)cc3)C(O)C(C)O2)Oc2ccc(cc2Cl)C1O` (centres unmarked) [Compound 37], the MIC E. faecalis ATCC 29212 with E. faecalis ATCC 29212 came to 0.78 mg/L. Also, in the experiment on S. Aureus ATCC 33591, the MIC S. aureus ATCC 33591 was determined as 0.39 mg/L. The MIC E. faecium ATCC 49624 with E. faecium ATCC 49624 was determined as 0.25 mg/L. The MIC S. aureus ATCC 29213 with S aureus ATCC 29213 was 0.39 mg/L.
For `CCC(C)C(NC)C(=O)NC1C(=O)NC(CC(N)=O)C(=O)NC2C(=O)NC3C(=O)NC(C(=O)NC(C(=O)O)c4cc(O)cc(O)c4-c4cc3ccc4O)C(O)c3ccc(c(Cl)c3)Oc3cc2cc(c3OC2OC(CO)C(O)C(O)C2OC2CC(C)(NCc3ccc(-c4ccc(Cl)cc4)cc3)C(O)C(C)O2)Oc2ccc(cc2Cl)C1O` (centres unmarked) [Compound 330], the MIC E. faecalis ATCC 29212 in the experiment with E. faecalis ATCC 29212 worked out at 0.78 mg/L. The MIC S. aureus ATCC 33591 in the experiment with S. Aureus ATCC 33591 turned out to be 0.25 mg/L. The MIC E. faecium ATCC 49624 in the experiment with E. faecium ATCC 49624 amounted to 0.12 mg/L. For the same molecule, the MIC S. aureus ATCC 29213 in the experiment on S aureus ATCC 29213 is 0.25 mg/L.
On to `CC1OC(OC2C(Oc3c4cc5cc3Oc3ccc(cc3Cl)C(O)C3NC(=O)C(NC(=O)C5NC(=O)C(CC(N)=O)NC(=O)C(NC(=O)C(N)COC(C)(C)C)C(O)c5ccc(c(Cl)c5)O4)c4ccc(O)c(c4)-c4c(O)cc(O)cc4C(C(=O)O)NC3=O)OC(CN)C(O)C2O)CC(C)(NCc2ccc(-c3ccc(Cl)cc3)cc2)C1O` (centres unmarked) [Compound 521], for which, in the experiment with E. faecalis ATCC 29212, the MIC E. faecalis ATCC 29212 came out at 0.78 mg/L. The MIC S. aureus ATCC 33591 with S. Aureus ATCC 33591 is 0.78 mg/L. For the same molecule, the MIC E. faecium ATCC 49624 in the experiment on E. faecium ATCC 49624 worked out at 0.12 mg/L. Further, the MIC S. aureus ATCC 29213 in the experiment on S aureus ATCC 29213 turned out to be 0.78 mg/L.
As to `C[C@H]1O[C@H](O[C@H]2[C@H](Oc3c4cc5cc3Oc3ccc(cc3Cl)[C@@H](O)[C@@H](NC(=O)[C@H](N)Cc3ccccc3)C(=O)N[C@@H](CC(N)=O)C(=O)N[C@H]5C(=O)N[C@H]3C(=O)N[C@H](C(=O)N[C@@H](C(=O)O)c5cc(O)cc(O)c5-c5cc3ccc5O)[C@H](O)c3ccc(c(Cl)c3)O4)O[C@H](CO)[C@@H](O)[C@@H]2O)C[C@@](C)(NCc2ccc(-c3ccc(Cl)cc3)cc2)[C@H]1O` [Compound 16], in the experiment with E. faecalis ATCC 29212, the MIC E. faecalis ATCC 29212 was 0.25 mg/L. Besides, in the experiment with S. Aureus ATCC 33591, the MIC S. aureus ATCC 33591 came out at 0.25 mg/L. Moreover, in the experiment with E. faecium ATCC 49624, the MIC E. faecium ATCC 49624 was 0.12 mg/L. In addition, the MIC S. aureus ATCC 29213 in the experiment on S aureus ATCC 29213 was determined as 0.25 mg/L.
